Some test systems named below: SNB-75; OVCAR-8; CAKI-1; SK-MEL-5; LOX IMVI; T47D; MOLT-4; NCI-H226; OVCAR-4; U-251; NCI-H460; M14; IGROV-1; SK-MEL-2; SF-539; BT-549; HCT-116; CCRF-CEM; RXF 393; A498.
What all share (assay): NCI-60 cell line screen, 48 h

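Where inhibition never reached the appropriate level, the endpoint shown equals the highest concentration tested. Otherwise, values were interpolated linearly from a five-concentration, 48-hour dose response in 96-well plates. GI50 = concentration required for 50% inhibition of growth.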 Calls of active or inactive are those of the source. No stated cut-off is given here; in the data, active = GI50 up to about 1.1 µM and inactive = higher.

On to `Cc1ccc(/C=C2/NC(=S)SC2=O)cc1`, for which the GI50 in the experiment on SNB-75 is 20.7 µM (inactive); with OVCAR-8 it was 31 µM (inactive); with CAKI-1 it was 19.6 µM (inactive); in the experiment with SK-MEL-5, 32.1 µM (inactive); in the experiment with LOX IMVI it was 32.8 µM (inactive); in the experiment on T47D it was 31.3 µM (inactive). Also, the GI50 in the experiment on MOLT-4 is 33.8 µM (inactive); with NCI-H226, 25.7 µM (inactive); in the experiment on OVCAR-4 it was 28.9 µM (inactive); in the experiment with U-251 it was 43.9 µM (inactive); in the experiment on NCI-H460 it was 22.4 µM (inactive); with M14, 33 µM (inactive). The GI50 with IGROV-1 was 37.7 µM (inactive); in the experiment with SK-MEL-2, 36.9 µM (inactive); in the experiment with SF-539, 30 µM (inactive); in the experiment on BT-549, 22.6 µM (inactive); in the experiment with HCT-116, 30.5 µM (inactive).

In the case of `NC(CCC(=O)O)C(=O)N1CCN(c2nc(N3CCCC3)c3nc(Cl)c(NCc4ccccc4)nc3n2)CC1` (configuration not stated), the GI50 was 12 µM (inactive) in the experiment on SNB-75; 15.6 µM (inactive) in the experiment with OVCAR-8; 17.8 µM (inactive) in the experiment with CAKI-1; 8.04 µM (inactive) in the experiment on SK-MEL-5; 14.6 µM (inactive) in the experiment with LOX IMVI; 7.19 µM (inactive) with CCRF-CEM. The GI50 is 6.64 µM (inactive) in the experiment on T47D; 7.53 µM (inactive) with MOLT-4; 12.3 µM (inactive) with NCI-H226; 10.5 µM (inactive) with OVCAR-4; 13.8 µM (inactive) in the experiment with U-251; 10.3 µM (inactive) in the experiment on NCI-H460. Also, the GI50 in the experiment on M14 was 10 µM (inactive); in the experiment on IGROV-1, 21.2 µM (inactive); in the experiment with SK-MEL-2, 15.6 µM (inactive); in the experiment with SF-539, 13.2 µM (inactive); in the experiment with BT-549 it was 12.1 µM (inactive); in the experiment with HCT-116, 13.9 µM (inactive).

Consider `CCCc1cc(=O)oc2c3c(c4c(c12)OC(C)(C)CC4)O[C@H](C)[C@@H](C)[C@H]3O`, for which the GI50 in the experiment on RXF 393 is 21.3 µM (inactive); in the experiment on SNB-75 it was 16.4 µM (inactive); in the experiment with OVCAR-8, 15.5 µM (inactive); in the experiment on CAKI-1, 20.5 µM (inactive); in the experiment with SK-MEL-5, 15.1 µM (inactive); in the experiment with LOX IMVI it was 14.8 µM (inactive). Besides, the GI50 is 14.1 µM (inactive) with CCRF-CEM; 12 µM (inactive) in the experiment with T47D; 12.4 µM (inactive) in the experiment on MOLT-4; 15.6 µM (inactive) in the experiment on NCI-H226; 14.2 µM (inactive) in the experiment on OVCAR-4; 13.9 µM (inactive) in the experiment with U-251. The GI50 in the experiment on NCI-H460 is 19 µM (inactive); in the experiment on M14, 16.1 µM (inactive); in the experiment on IGROV-1, 15.6 µM (inactive); in the experiment with SK-MEL-2, 24.7 µM (inactive); with SF-539, 21.4 µM (inactive); in the experiment with BT-549 it was 13.4 µM (inactive). Further, in the experiment on HCT-116, the GI50 is 15.5 µM (inactive).

Turning to `CCOC(CN(C)C(=O)OCC(Cl)(Cl)Cl)OCC`, the GI50 with RXF 393 was 30.7 µM (inactive); in the experiment with SNB-75, 83.4 µM (inactive); in the experiment with OVCAR-8, > 100 µM (inactive); in the experiment with CAKI-1 it was 34.1 µM (inactive); in the experiment with SK-MEL-5 it was 33.7 µM (inactive); in the experiment with LOX IMVI, 57.9 µM (inactive). Besides, the GI50 with CCRF-CEM was 56.6 µM (inactive); in the experiment on MOLT-4 it was 29.3 µM (inactive); with NCI-H226 it was 54.6 µM (inactive); with OVCAR-4 it was 77.1 µM (inactive); in the experiment with U-251, 74.8 µM (inactive); in the experiment with NCI-H460, 61.5 µM (inactive). Moreover, the GI50 in the experiment with M14 was 69 µM (inactive); in the experiment with IGROV-1 it was > 100 µM (inactive); in the experiment on SF-539, > 100 µM (inactive); with BT-549, 82.8 µM (inactive); with HCT-116, 41.5 µM (inactive).

On to `CCOP(=O)(OCC)/C(C#N)=C/c1cnc(-c2ccccc2)[nH]1`, for which the GI50 in the experiment on RXF 393 was > 100 µM (inactive); with SNB-75, > 100 µM (inactive); in the experiment with OVCAR-8 it was > 100 µM (inactive); in the experiment with CAKI-1, > 100 µM (inactive); with SK-MEL-5, 82.8 µM (inactive); in the experiment with LOX IMVI it was > 100 µM (inactive). In addition, the GI50 with CCRF-CEM, in the experiment with MOLT-4, with A498, in the experiment on NCI-H226, in the experiment with OVCAR-4 and with U-251 was > 100 µM (inactive) each time. Also, the GI50 in the experiment on NCI-H460 was > 100 µM (inactive); with M14, > 100 µM (inactive); in the experiment on IGROV-1 it was > 100 µM (inactive); in the experiment on SK-MEL-2, > 100 µM (inactive); in the experiment on SF-539 it was 0.0887 µM (active); with BT-549, > 100 µM (inactive). Also, the GI50 in the experiment with HCT-116 was > 100 µM (inactive).

For `COc1ccc(C2SC(C)C(=O)N2c2nc(-c3nc(-c4ccc(Cl)cc4)cs3)cs2)cc1` (configuration not stated), the GI50 with RXF 393, in the experiment on SNB-75, in the experiment with OVCAR-8, in the experiment on CAKI-1, in the experiment on SK-MEL-5 and in the experiment with LOX IMVI was > 100 µM (inactive) throughout. Moreover, the GI50 is 85.3 µM (inactive) in the experiment on CCRF-CEM; 46.1 µM (inactive) in the experiment with T47D; 49.2 µM (inactive) with MOLT-4; > 100 µM (inactive) with NCI-H226; > 100 µM (inactive) with OVCAR-4; 84.7 µM (inactive) in the experiment with U-251. In addition, the GI50 with NCI-H460, with M14, in the experiment on IGROV-1, with SF-539, in the experiment on BT-549 and with HCT-116 was > 100 µM (inactive) each time.

In the case of `Cc1c(C)c2c(c(N)c1C#N)C(=O)N(Nc1ccccc1)C2=O`, the GI50 in the experiment with RXF 393 was 20 µM (inactive); in the experiment on SNB-75 it was 30.6 µM (inactive); in the experiment with OVCAR-8, 33 µM (inactive); in the experiment on CAKI-1, > 100 µM (inactive); with SK-MEL-5, > 100 µM (inactive); with LOX IMVI, 3.51 µM (inactive). Also, the GI50 in the experiment on CCRF-CEM was 97.1 µM (inactive); in the experiment with T47D, 9.95 µM (inactive); with MOLT-4, 92.7 µM (inactive); in the experiment on NCI-H226 it was 61.2 µM (inactive); in the experiment with OVCAR-4, 33.4 µM (inactive); in the experiment with U-251 it was 43.5 µM (inactive). Besides, the GI50 with NCI-H460 is 60.8 µM (inactive); in the experiment on M14, > 100 µM (inactive); in the experiment with IGROV-1 it was 42.7 µM (inactive); in the experiment on SK-MEL-2, 96.8 µM (inactive); in the experiment with SF-539, 40.1 µM (inactive); in the experiment on BT-549, > 100 µM (inactive). Besides, the GI50 with HCT-116 was > 100 µM (inactive).

`O=C1NC(O)c2ccccc2O1` (configuration not stated): the GI50 in the experiment on RXF 393, with SNB-75, in the experiment on OVCAR-8, in the experiment with CAKI-1, with SK-MEL-5 and with LOX IMVI was > 100 µM (inactive) in each case. In addition, the GI50 in the experiment with CCRF-CEM, in the experiment on MOLT-4, with A498, in the experiment with NCI-H226, in the experiment with OVCAR-4 and in the experiment on U-251 was > 100 µM (inactive) in each case. Also, the GI50 in the experiment with NCI-H460, with M14, with IGROV-1, in the experiment on SK-MEL-2, in the experiment with SF-539 and in the experiment with BT-549 was > 100 µM (inactive) in each case. For the same compound, the GI50 in the experiment with HCT-116 was > 100 µM (inactive).

In the case of `NCCSC(c1ccccc1)c1ccccc1`, the GI50 is 17.7 µM (inactive) with RXF 393; 24.5 µM (inactive) with SNB-75; 20.6 µM (inactive) with OVCAR-8; 24.9 µM (inactive) with CAKI-1; 16.7 µM (inactive) with SK-MEL-5; 16.3 µM (inactive) in the experiment with LOX IMVI. Besides, the GI50 was 32.6 µM (inactive) in the experiment on CCRF-CEM; 15.7 µM (inactive) with MOLT-4; 22.4 µM (inactive) in the experiment with A498; 31.2 µM (inactive) in the experiment with NCI-H226; 20.4 µM (inactive) in the experiment with OVCAR-4; 18.2 µM (inactive) with U-251. Further, the GI50 in the experiment on NCI-H460 was 15.1 µM (inactive); with M14 it was 14.7 µM (inactive); with IGROV-1, 13.1 µM (inactive); with SK-MEL-2, 18.4 µM (inactive); in the experiment on SF-539, 20.7 µM (inactive); with BT-549, 43.8 µM (inactive). In the experiment on HCT-116, the GI50 is 16.7 µM (inactive).

For the compound `S=c1c2cn[nH]c2nc2scc(-c3ccc(Cl)cc3)n12`, the GI50 is 4.04 µM (inactive) in the experiment with RXF 393; 13.9 µM (inactive) with SNB-75; 16 µM (inactive) in the experiment on OVCAR-8; 9.59 µM (inactive) in the experiment with CAKI-1; 17.6 µM (inactive) in the experiment on SK-MEL-5; 11.3 µM (inactive) in the experiment on LOX IMVI. The GI50 in the experiment on CCRF-CEM is 16.2 µM (inactive); in the experiment on T47D, > 10 µM (inactive); in the experiment on MOLT-4 it was 15.6 µM (inactive); in the experiment on OVCAR-4 it was 43.1 µM (inactive); in the experiment with U-251, 12.9 µM (inactive); with NCI-H460 it was 20.6 µM (inactive). The GI50 with M14 is 17 µM (inactive); in the experiment on IGROV-1 it was > 10 µM (inactive); in the experiment on SK-MEL-2 it was 18.2 µM (inactive); in the experiment on SF-539, 17.7 µM (inactive); in the experiment on BT-549 it was 10.5 µM (inactive); in the experiment on HCT-116, 14.2 µM (inactive).

On to `CCOC(=O)CC1c2ccc(O)cc2OC(=O)C1c1ccc([N+](=O)[O-])cc1` (configuration not stated), for which the GI50 with RXF 393 was 16.9 µM (inactive); in the experiment with SNB-75 it was 23.9 µM (inactive); in the experiment with OVCAR-8, 29 µM (inactive); with CAKI-1, 43 µM (inactive); with SK-MEL-5, 15.4 µM (inactive); in the experiment on LOX IMVI, 40.7 µM (inactive). The GI50 is 22.8 µM (inactive) in the experiment with CCRF-CEM; 15.8 µM (inactive) in the experiment with T47D; 22.8 µM (inactive) in the experiment with MOLT-4; 25.6 µM (inactive) in the experiment on A498; 14.2 µM (inactive) in the experiment with NCI-H226; 27.7 µM (inactive) in the experiment on OVCAR-4. The GI50 in the experiment with U-251 is 35.8 µM (inactive); with NCI-H460, 31.3 µM (inactive); in the experiment with M14 it was 21 µM (inactive); in the experiment with IGROV-1, 21.5 µM (inactive); with SK-MEL-2, 17 µM (inactive); in the experiment on SF-539, 31 µM (inactive). Further, the GI50 with HCT-116 was 22.5 µM (inactive).
